Data on 13 molecules can be found in patent US11173145B2, “Compounds useful as inhibitors of indoleamine 2,3-dioxygenase and/or tryptophan dioxygenase” (Board of Regents, The University of Texas System, priority 2017, dated 2021).

The assay addresses T1, IDO1 (Homo sapiens, UniProt P14902).
T1 construct: endogenous in cells; host or cells: HeLa cells (ATCC), IFNgamma-induced
Briefly: IDO1 cell-based assay (HeLa cells, IFNgamma-induced, N-formylkynurenine/L-tryptophan by RFMS). Particulars: 10 ng/mL IFNgamma, 24 hours. As to the method: HeLa cells were obtained from the American Type Culture Collection (ATCC) and maintained in DMEM media containing 10% FBS. Cells (7,000/well) were seeded onto a 384 well plate in 50 μL of media and incubated at 37° C., 5% CO2 overnight. Cell media was aspirated, fresh media containing 10 ng/mL IFNgamma was added, and cells were incubated in absence or presence of various concentrations of test compound (final 0.5% DMSO) for 24 hours. Aliquots of the cell conditioned media were removed from the cell plate, and mixed with an equal volume of 200 mM ZnSO4 to precipitate media containing proteins. Two volumes of acetonitrile were added, mixed, and samples were then centrifuged at 2250G for 20 minutes at 4° C. Aliquots of the supernatant were diluted 1:10 in 0.1% formic acid containing 3 μM of deuterated Tryptophan as an internal standard.
Samples were analyzed via RFMS to quantify N-Formyl Kynurenine (AUC) and L-tryptophan (AUC). A C18 cartridge was used with mobile phases of 0.1% Formic Acid and 80% ACN/0.1% Formic Acid under isocratic conditions. Dose-response curves were analyzed using IC50 regression curve fitting (GeneData Screener). […] Cell viability was also assessed using the Cell Titer Glo Kit (Promega) following manufacturer recommendation.

Broadly, the IC50 is the concentration that gives 50% inhibition. Higher therefore signals weaker potency in that assay.

T1 sequence (P14902 whole entry): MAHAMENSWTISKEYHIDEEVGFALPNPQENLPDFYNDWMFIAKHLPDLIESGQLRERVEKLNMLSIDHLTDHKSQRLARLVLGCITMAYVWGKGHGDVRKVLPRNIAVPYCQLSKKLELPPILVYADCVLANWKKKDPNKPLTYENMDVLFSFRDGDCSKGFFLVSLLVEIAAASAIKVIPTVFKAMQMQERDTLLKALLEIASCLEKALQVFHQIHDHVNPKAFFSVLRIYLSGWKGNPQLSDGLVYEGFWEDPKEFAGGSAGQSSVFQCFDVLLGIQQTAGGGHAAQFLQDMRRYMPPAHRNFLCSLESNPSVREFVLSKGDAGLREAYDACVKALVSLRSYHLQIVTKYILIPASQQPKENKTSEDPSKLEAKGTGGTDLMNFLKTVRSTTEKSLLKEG

As to `CC[C@@H](NC(=O)c1ccc(Cl)cc1)[C@H]1[C@@H]2C[C@@H](NC(=O)c3cccnc3)C[C@@H]21` [Compound 335, N-((1R,3S,5S,6r)-6-((R)-1-(4-chlorobenzamido)propyl)bicyclo[3.1.0]hexan-3-yl)nicotinamide], the IC50 was below 0.2 µM.
With `CC[C@@H](NC(=O)c1ccc(Cl)cc1)[C@H]1[C@@H]2C[C@@H](C(CO)CO)C[C@@H]21` [Compound 291, 4-chloro-N—((R)-1-((1R,3S,5S,6r)-3-(1,3-dihydroxypropan-2-yl)bicyclo[3.1.0]hexan-6-yl)propyl)benzamide] the figure was 0.2 to 2 µM; with `CC[C@@H](NC(=O)c1ccc(Cl)cc1)[C@H]1[C@@H]2C[C@@H](n3cc(I)cn3)C[C@@H]21` [Compound 304, 4-chloro-N-((R)-1-((1R,3S,5S,6r)-3-(4-iodo-1H-pyrazol-1-yl)bicyclo[3.1.0]hexan-6-yl)propyl)benzamide], below 0.2 µM.
Then `CCC(NC(=O)c1ccc(Cl)cc1)[C@H]1[C@@H]2C[C@@H](n3cnc4ccc(F)cc4c3=O)C[C@@H]21` (stereo partly drawn) [Compound 6, 4-chloro-N-(1-((1R,3s,5S,6r)-3-(6-fluoro-4-oxoquinazolin-3(4H)-yl)bicyclo[3.1.0]hexan-6-yl)propyl)benzamide], with below 0.2 µM; and `O=S(=O)(NC1C2CC(Oc3ccnc4ccccc34)CC21)c1ccc(Cl)cc1` (stereo not shown) [Compound 28, 4-chloro-N-(3-(quinolin-4-yloxy)bicyclo[3.1.0]hexan-6-yl)benzenesulfonamide], with above 5 µM.
The molecule `CCC(NC(=O)c1ccc(Cl)cc1)[C@H]1[C@@H]2C[C@@H](n3nncc3C(C)(C)O)C[C@@H]21` (stereo partly drawn) [Compound 154, 4-chloro-N-(1-((1R,3s,5S,6r)-3-(5-(2-hydroxypropan-2-yl)-1H-1,2,3-triazol-1-yl)bicyclo[3.1.0]hexan-6-yl)propyl)benzamide] displayed a half-maximal inhibitory concentration (IC50) below 0.2 µM.
Turning to `CCC(NC(=O)c1ccc(OC)nc1)C1C2CC(Oc3ncnc4ccc(F)cc34)CC21` [Compound 78, N-(1-((1R,3s,5S,6r)-3-((6-fluoroquinazolin-4-yl)oxy)bicyclo[3.1.0]hexan-6-yl)propyl)-6-methoxynicotinamide], the concentration for half-maximal inhibition (IC50) was below 0.2 µM.
Then `CCOC(=O)CC(NC(=O)c1ccc(Cl)cc1)[C@H]1[C@@H]2C[C@@H](Oc3cnnc4ccccc34)C[C@@H]21` (stereo partly drawn) [Compound 84, ethyl 3-(4-chlorobenzamido)-3-((1R,3s,5S,6r)-3-(cinnolin-4-yloxy)bicyclo[3.1.0]hexan-6-yl)propanoate], with below 0.2 µM.
Then `CCC(NC(=O)c1ccc(Cl)cc1)[C@H]1[C@@H]2C[C@@H](O)C[C@@H]21` (single isomer, unassigned) [Compound 3], with 0.2 to 2 µM.
Then `CC(NC(=O)c1ccc(C#N)cc1)C1[C@H]2CC(O)C[C@@H]12` (stereo partly drawn) [Compound 106, 4-cyano-N-(1-((1R,3s,5S,6r)-3-hydroxybicyclo[3.1.0]hexan-6-yl)ethyl)benzamide], with above 5 µM; and `COc1ccc(C(=O)NC[C@@H]2[C@H]3C[C@H](n4cnc5cc(F)c(F)cc54)C[C@@H]23)cn1` [Compound 318, N-(((1R,3s,5S,6r)-3-(5,6-difluoro-1H-benzo[d]imidazol-1-yl)bicyclo[3.1.0]hexan-6-yl)methyl)-6-methoxynicotinamide], with 0.2 to 2 µM.
For the molecule `CC(C(=O)Nc1ccc(Cl)cc1)[C@H]1[C@@H]2C[C@@H](Oc3ncnc4ccc(F)cc34)C[C@@H]21` (stereo partly drawn) [Compound 339, N-(4-chlorophenyl)-2-((1R,3s,5S,6r)-3-((6-fluoroquinazolin-4-yl)oxy)bicyclo[3.1.0]hexan-6-yl)propanamide], the IC50 was below 0.2 µM.
With `CCC(NC(=O)c1ccc(Cl)cc1)[C@H]1[C@@H]2C[C@@H](NC(=O)c3ccncn3)C[C@@H]21` (stereo partly drawn) [Compound 149, N-((1R,3s,5S,6r)-6-(1-(4-chlorobenzamido)propyl)bicyclo[3.1.0]hexan-3-yl)pyrimidine-4-carboxamide] the figure was below 0.2 µM.
